According to patent US20240229043A1, “Methods and Compositions for Treating, Ameliorating, and/or Preventing Chronic Kidney Disease (CKD) and Complications thereof by Regulating DPEP1, CASP9, ACSS2 and/or FASN” (THE TRUSTEES OF THE UNIVERSITY OF PENNSYLVANIA, priority 2022, published 2024):
“Also recorded” adds a separate entry of the source. Each block holds one molecule with its values, some of them ahead of it.

Tests used:
ACSS2 [1] = target: ACSS2 (Homo sapiens, UniProt Q9NR19); conditions: cell and animal models; cited from earlier work
Chain of ACSS2 (Homo sapiens, UniProt Q9NR19) (Q9NR19 whole entry, species assumed): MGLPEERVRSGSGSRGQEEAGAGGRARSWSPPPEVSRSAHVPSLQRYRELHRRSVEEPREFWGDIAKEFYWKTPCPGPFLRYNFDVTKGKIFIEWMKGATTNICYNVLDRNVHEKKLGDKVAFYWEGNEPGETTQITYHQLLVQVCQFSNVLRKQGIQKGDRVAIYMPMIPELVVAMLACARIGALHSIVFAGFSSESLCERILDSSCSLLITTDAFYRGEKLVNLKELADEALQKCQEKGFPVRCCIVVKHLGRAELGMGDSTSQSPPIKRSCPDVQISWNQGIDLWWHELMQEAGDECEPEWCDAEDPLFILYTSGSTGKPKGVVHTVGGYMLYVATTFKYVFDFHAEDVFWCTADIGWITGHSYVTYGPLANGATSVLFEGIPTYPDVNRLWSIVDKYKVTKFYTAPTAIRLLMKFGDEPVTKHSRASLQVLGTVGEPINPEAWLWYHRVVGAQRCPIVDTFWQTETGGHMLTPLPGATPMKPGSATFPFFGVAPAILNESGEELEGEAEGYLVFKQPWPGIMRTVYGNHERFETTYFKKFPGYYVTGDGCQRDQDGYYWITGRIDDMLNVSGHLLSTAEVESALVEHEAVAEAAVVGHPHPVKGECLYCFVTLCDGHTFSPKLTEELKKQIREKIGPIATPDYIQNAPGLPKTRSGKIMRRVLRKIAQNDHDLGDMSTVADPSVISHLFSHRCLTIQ

ACSS2 [2] = target: T1, ACSS2 (Mus musculus, UniProt Q9QXG4); test: UUO mouse model of kidney fibrosis with ACSS2i; assay type: in vivo, mice
T1 construct: from tissue; host or cells: living C57BL/6J mice; read-outs in kidney
T1 sequence (Q9QXG4 whole entry): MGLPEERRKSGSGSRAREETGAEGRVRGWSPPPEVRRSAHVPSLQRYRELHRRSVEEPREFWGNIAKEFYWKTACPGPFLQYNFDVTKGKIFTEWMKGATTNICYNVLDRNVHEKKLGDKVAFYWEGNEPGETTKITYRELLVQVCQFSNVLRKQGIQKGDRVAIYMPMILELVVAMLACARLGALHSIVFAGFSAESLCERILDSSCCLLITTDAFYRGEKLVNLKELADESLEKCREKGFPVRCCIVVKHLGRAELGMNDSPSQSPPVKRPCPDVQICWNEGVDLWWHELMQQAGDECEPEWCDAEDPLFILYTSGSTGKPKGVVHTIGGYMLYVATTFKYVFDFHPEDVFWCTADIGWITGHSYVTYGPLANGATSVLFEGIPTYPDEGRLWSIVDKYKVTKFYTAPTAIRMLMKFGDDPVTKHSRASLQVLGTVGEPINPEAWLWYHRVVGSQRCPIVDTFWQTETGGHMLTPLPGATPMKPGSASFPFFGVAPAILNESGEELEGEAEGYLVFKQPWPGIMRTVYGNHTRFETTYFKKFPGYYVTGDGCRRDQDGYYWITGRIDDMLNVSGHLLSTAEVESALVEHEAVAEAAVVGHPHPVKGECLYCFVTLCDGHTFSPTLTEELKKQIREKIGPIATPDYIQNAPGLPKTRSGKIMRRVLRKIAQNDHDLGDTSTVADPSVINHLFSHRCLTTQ
Method: (§1) Animal studies were approved by the Institutional Animal Care and Use Committee (IACUC) of the University of Pennsylvania. Mice were housed in pathogen free conditions with 12 h dark and light cycle in a temperature- and humidity-controlled environment (23±1). The mice were fed ad libitum with water and rodent standard chow diet. 6- to 7-week-old male and female C57BL/6J mice were used in the study. Mice were randomly assigned to experimental groups for all experiments including drug efficacy studies. To induce kidney injury, the present study employed two widely used kidney disease models including unilateral ureteral obstruction (UUO) and folic acid nephropathy (FAN). UUO surgery experiments were conducted on male and female mice. Briefly, UUO was performed by ligating the right kidney ureter, and the left kidney served as a sham operated kidney. Post-surgical procedures were followed according to the IACUC guidelines. For FAN models, 300 mM sodium bicarbonate (NaHCO3) solution was first made to solubilize folic acid (FA) and injected into male mice (FA 250 mg/kg i.p at single dose). Mice were sacrificed 7 days following injection or surgery. For the drug injection studies, mice were first injected one day before the UUO surgery.
(§2) Approximately 20-30 mg of kidney tissue was homogenized in SDS-blue loading buffer (#7722, CST) containing 42 mM DTT. Samples were loaded onto the SDS-PAGE gels and run at 100v for 1 h 40 min at RT in Tris-Glycine-SDS buffer. The proteins were transferred onto a PVDF membrane. Membranes were blocked with 3% non-fat dry milk powder in tris-buffer saline containing Tween-20 (TBST) for 30 min at RT. The blots were then incubated with primary antibody overnight at 4OC. After primary antibody incubation, the blots were washed three times with TBST, IRdye-conjugated secondary antibodies were probed for 1 h at RT. Finally, the blots were washed in TBST for three minutes each, 10 min at RT, and scanned at 600, 700, and 800 excitation wavelengths in Li-COR imager (Odysseyφ XF), Image Studio software. The images were quantified for relative abundance in Image J software.
(§3) The tissues were fixed in formalin, dehydrated by an ethanol gradient (30%, 50%, 75% and 95%) and then submitted to the histology Core in 100% ethanol. Once the tissue was sectioned, H&E and Sirius red staining was performed. Images were acquired in Olympus 5000 microscope with Cell Sense software. Percentage of relative fibrosis was quantified in image J.
(§4) For the inhibitor studies, littermate mice were randomly assigned to receive either FASNall or ACSS2i. A single dose of 1 mg/ml FASNall was given via i.p injection at 10 mg/kg body weight one day prior to the UUO surgery. Mice were sacrificed 3 days after UUO surgery, and their kidneys were harvested. ACSS2i was injected at 20 mg/kg body weight via i.p injection one day prior to UUO surgery, followed by daily injections for 5 days. Mice sacrificed on the 7th day after UUO surgery.

FASN [3] = target: T2, FASN (Mus musculus, UniProt P19096); assay type: cell-based
T2 sequence (P19096 whole entry): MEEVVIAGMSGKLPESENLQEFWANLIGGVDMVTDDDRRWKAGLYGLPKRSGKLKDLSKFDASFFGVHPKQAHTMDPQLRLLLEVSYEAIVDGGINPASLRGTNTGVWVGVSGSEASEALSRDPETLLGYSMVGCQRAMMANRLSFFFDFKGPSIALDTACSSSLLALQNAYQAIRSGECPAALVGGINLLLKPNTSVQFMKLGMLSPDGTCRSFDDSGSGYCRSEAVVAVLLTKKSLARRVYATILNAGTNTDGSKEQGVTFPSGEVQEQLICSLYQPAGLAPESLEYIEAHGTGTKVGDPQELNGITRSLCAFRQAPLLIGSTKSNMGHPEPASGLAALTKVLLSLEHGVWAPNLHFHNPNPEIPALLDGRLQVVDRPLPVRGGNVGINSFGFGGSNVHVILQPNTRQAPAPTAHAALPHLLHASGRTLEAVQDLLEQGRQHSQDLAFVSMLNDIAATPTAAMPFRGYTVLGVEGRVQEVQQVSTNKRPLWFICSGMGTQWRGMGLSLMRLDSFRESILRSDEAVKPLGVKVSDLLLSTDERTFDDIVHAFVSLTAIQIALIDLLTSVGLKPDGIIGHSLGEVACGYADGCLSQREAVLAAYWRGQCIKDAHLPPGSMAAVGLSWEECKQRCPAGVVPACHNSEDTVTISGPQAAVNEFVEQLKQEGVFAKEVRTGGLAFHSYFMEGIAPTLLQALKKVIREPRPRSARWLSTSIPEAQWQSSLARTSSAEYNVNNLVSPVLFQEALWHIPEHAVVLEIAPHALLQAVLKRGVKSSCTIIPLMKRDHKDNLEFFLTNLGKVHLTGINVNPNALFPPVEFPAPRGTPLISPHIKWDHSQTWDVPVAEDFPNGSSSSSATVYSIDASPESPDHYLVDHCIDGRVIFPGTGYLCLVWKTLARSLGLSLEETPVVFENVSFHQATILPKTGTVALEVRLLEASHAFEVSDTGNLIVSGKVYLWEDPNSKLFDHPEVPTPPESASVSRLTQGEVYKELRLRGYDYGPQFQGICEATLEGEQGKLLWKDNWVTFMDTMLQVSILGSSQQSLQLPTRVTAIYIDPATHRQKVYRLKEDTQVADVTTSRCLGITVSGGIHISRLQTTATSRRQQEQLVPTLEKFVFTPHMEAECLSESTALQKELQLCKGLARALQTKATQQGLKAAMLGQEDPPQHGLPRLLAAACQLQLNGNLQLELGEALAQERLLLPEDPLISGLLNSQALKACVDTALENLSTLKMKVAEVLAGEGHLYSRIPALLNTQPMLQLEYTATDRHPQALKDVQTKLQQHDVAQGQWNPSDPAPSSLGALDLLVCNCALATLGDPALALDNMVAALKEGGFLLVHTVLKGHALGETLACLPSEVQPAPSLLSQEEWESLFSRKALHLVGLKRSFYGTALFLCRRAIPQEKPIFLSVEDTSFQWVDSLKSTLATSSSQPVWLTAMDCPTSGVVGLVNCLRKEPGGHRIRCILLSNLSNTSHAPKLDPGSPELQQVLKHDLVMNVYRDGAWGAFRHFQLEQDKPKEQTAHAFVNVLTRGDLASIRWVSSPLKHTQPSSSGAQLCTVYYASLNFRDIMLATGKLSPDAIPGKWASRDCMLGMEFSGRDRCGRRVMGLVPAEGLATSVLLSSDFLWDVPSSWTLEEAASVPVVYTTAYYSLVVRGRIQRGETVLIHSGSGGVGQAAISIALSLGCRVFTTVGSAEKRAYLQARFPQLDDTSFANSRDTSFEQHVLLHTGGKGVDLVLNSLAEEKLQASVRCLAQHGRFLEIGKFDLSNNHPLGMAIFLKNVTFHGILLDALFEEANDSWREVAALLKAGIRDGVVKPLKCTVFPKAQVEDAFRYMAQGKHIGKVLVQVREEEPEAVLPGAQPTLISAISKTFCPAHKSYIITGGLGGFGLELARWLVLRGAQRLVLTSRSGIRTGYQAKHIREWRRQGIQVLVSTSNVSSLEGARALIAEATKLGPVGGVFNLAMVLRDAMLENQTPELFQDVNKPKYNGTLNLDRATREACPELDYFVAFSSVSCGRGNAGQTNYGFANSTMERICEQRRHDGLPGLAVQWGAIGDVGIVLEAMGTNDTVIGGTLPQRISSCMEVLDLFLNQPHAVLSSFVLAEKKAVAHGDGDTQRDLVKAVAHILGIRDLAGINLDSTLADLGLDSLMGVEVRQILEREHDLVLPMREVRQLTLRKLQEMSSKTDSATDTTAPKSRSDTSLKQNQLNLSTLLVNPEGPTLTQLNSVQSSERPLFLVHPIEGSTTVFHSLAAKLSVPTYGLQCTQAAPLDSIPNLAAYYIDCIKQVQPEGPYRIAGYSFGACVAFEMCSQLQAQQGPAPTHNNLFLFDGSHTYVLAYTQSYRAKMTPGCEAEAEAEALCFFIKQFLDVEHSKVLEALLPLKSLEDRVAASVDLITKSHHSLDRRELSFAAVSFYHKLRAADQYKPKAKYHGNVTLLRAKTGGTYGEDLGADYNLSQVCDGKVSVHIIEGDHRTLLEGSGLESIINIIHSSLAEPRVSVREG
Method: The NADPH/NADP+ ratio was calculated according to the manufacturer protocol (#G1009, Promega). Briefly, an equal number of cells were cultured in a 96-well format and starved overnight for TGF-beta 1 treatments. Next, the cells were lysed in 20% DTAB containing Basic solution for 10 min at RT. Samples were processed according to the protocol for measuring NADPH and NADP+ from the same well simultaneously. The absolute and relative NADPH/NADP+ values were calculated according to the manufacturer's formula.
Reduced and oxidized glutathione levels were measured according to the Glutathione Colorimetric Detection Kit (#EIAGSHC, Thermo Scientific) from the same well after completion of all treatments.
(§5) Primary cells were cultured on microscopic cover glass overnight until they reached 70% confluency. Cells were incubated in a 5 μM MitoSox (#M36008, Thermo Scientific) solution for 10 min in incubator and processed for imaging and quantifications. Cells were also incubated in 10 μM JC-1 (#T3168, Thermo Scientific) for 10 min and then proceeded with imaging and quantifications.

FASN [4] = target: T2, FASN
FASN [5] = target: T2, FASN; assay type: in vivo
Method: as §1, §2, §3, §4

primary TECs = test: Cisplatin-treated primary kidney tubule cells from wild-type and Chmp1a+/- mice; assay type: cell-based
Method: For primary culture of renal tubule cells, kidneys were collected from 2- to 4-week-old male mice. Cells were isolated by 2 mg/ml collagenase I (Gibco #17018-029) digestion for 30 min at 37° C. with gentle stirring and filtered through a 100-μm mesh. The cell suspension was cultured in RPMI 1640 (Corning #10-040-CM) supplement with 10% FBS (Atlanta Biologicals #S11950), 20 ng/ml EGF (Peprotech #AF-100-15), 1×ITS (Gibco #51500-056), and 1% penicillin-streptomycin (Corning #30-002-CI) at 5% CO2 and 37° C.
Primary cultured renal tubule cells or NRK52E cells were incubated with 1 μM transferrin (Thermo Fisher #T13342) for 4 h, or 5 μM mitoSOX (ThermoFisher #M36008) for 10 min, or 2 μM BODIPY™ 581/591 C11 (Thermo Fisher #D3861) for 0.5 h, or 20 ng/ml dextran conjugated to 488 (Thermo Fisher #D22910) for 2 h, at 5% CO2 and 37° C., respectively. After washing with PBS, cells were imaged directly under the confocal or regular fluorescence microscope.
Mouse primary tubular epithelial cells from wild-type, mutant mice or NRK52E cells were plated in 96-well plate. Transfection of NRK52E cells with siRNA was carried out as described above. […] Cells were harvested and stained with trypan blue (Thermo Fisher #T10282) to visualize dead cells. Cell counts were analyzed in Countess Auto Counter (Invitrogen, C10227). LDH release was quantified using CytoTox 96 Non-Radioactive Cytotoxicity Assay (Promega #G1780). Medium was collected in triplicates, spun down, and incubated in a 96-well plate with the CytoTox reagent for 20-30 min. After adding the stop solution, the absorbance signal was measured at 490 nm in a plate reader. The ratio between dead cell and live cell was calculated through the measurement using MultiTox-Fluor Multiplex Cytotoxicity Assay (Promega #9201). Cells were incubated in assay buffer containing live cell substrate GF-AFC and dead cell substrate bis-AAF-R110 for 30 min at 37° C. The plate fluorescence was measured using a plate reader as following: viability: excitation ˜400 nm; emission ˜505 nm. cytotoxicity: excitation ˜485 nm; emission ˜520 nm.

mitochondrial ROS = test: MitoTempo in TGF-beta 1 treated primary tubule cells; assay type: cell-based, mice
Method: as §5
Cells cultured as above and pretreated with 100 μM MitoTempo (#SML0737, Sigma) for 2 h, followed by TGF-beta 1 treatments while MitoTempo was still present.

- fibrosis and tubule atrophy (H&E, Sirius red quantification) (ACSS2 [2]; UUO): markedly lower
- gene expression of NLRP3, IL-1B, IL18, caspase1 and Gsdmd (ACSS2 [2]; UUO kidneys): lower
- lipid accumulation (Fasn, Plin2 expression, TG accumulation) (ACSS2 [2]; UUO kidneys): inhibited
- Protein levels of NLRP3, caspase1, cleaved caspase1 (p20), F-GSDMD, and N-GSDMD (ACSS2 [2]; UUO kidneys vs vehicle treated): lower
- collagen fibers staining (Sirius Red) (ACSS2 [2]; vs vehicle alone): reduced
SMILES: COCCNC(=O)Nc1ccc2nc(-c3cccs3)c(-c3cccs3)nc2c1 [ACSS2i]
- obesity-induced multiple myeloma growth (ACSS2 [1]): reduce
- Gene and protein expression of fibrosis markers (Acta2, Col1a1, Col3a, and Fn1) (ACSS2 [2]; UUO kidney injury): reduced fibrosis; also recorded: protective effect
- kidney disease development (ACSS2 [2]; mice): protect mice from kidney disease development
- UUO induced kidney injury (H&E analysis) (ACSS2 [2]; vs vehicle injected mice): prevented

SMILES: Cc1sc2ncnc(NC3CCN(Cc4ccccc4)C3)c2c1C (stereo not drawn) [FASNall]
- less negative mitochondrial membrane potential (monomeric JC-1 accumulation) (FASN [3]; TGF-beta 1 treated WT cells): attenuated this effect
- GSH levels and relative GSH/GSSH ratio (FASN [3]; TGF-beta 1 treated cells): preserved
- NADPH/NADP+ ratio (FASN [3]; TGF-beta 1 treated tubule cells): preserved
- cell death (cell viability) (FASN [4]): did not increase cell death
- Protein levels of FN1 and α-SMA (FASN [5]; UUO kidneys): suppressed; also recorded: lower
- TGs (TAGs) levels in kidney (FASN [5]; UUO kidneys): prevented; also recorded: lower
- fibrosis markers Acta2, Col1a1, Col3a, and Fn1 gene expression (FASN [5]; UUO kidneys): lower
- gene expression of NLRP3, IL-1B, IL18, caspase1 and Gsdmd (FASN [5]; UUO kidneys): lower
- lipid accumulation (Oil red O staining) (FASN [5]; UUO kidneys): attenuated; also recorded: lower
- tissue scarring (Sirius red staining) (FASN [5]; UUO kidneys vs vehicle): less
- tubule atrophy and fibrosis (histological analysis) (FASN [5]; UUO kidneys vs vehicle): lower
- Protein levels of NLRP3, caspase1, cleaved caspase1 (p20), F-GSDMD, and N-GSDMD (FASN [5]; UUO kidneys vs vehicle treated): lower
- Fasn and Plin2 expression (FASN [5]; UUO kidneys, single dose 10 mg/kg i.p., 10 mg/kg): significantly prevented; also recorded: ameliorated
- kidney injury and fibrosis / kidney disease development (FASN [5]; mice): prevented kidney injury and fibrosis development; also recorded: protect mice from kidney disease development

SMILES: CC1(C)CC(NC(=O)C[P+](c2ccccc2)(c2ccccc2)c2ccccc2)CC(C)(C)N1[O] [Mito-TEMPO]
- LDH release induced by cisplatin (primary TECs; Chmp1a+/- primary TECs): markedly lowered
- lipid peroxidation (C11 BODIPY 581/591) induced by cisplatin (primary TECs; primary TECs from wild-type or Chmp1a+/- mice): markedly lowered
- inflammasome activation (IL-1B, IL18, and caspase1 increase) (mitochondrial ROS; following TGF-beta 1 treatment, MitoTempo 100 μM): efficiently lowered
- TGF-beta 1 induced expression of fibrosis markers / fibrotic genes (mitochondrial ROS; primary TECs): lowered; also recorded: diminished
